From PMC2925244 (Current biology : CB, 2010)

What was measured:
Format in all cases: cell-based
hTAS2R40 = hTAS2R40 (Homo sapiens, UniProt P59535); assay: calcium imaging in transfected cells, […] GIV3727 against […] cohumulone; conditions: read-out: % activation in presence of GIV3727
hTAS2R43 [1] = molecular target: T1, hTAS2R43 (Homo sapiens, UniProt P59537); assay: calcium imaging in transfected cells, […] GIV3727 against […] aristolochic acid; conditions: read-out: % activation in presence of GIV3727
T1 sequence (P59537 1-309): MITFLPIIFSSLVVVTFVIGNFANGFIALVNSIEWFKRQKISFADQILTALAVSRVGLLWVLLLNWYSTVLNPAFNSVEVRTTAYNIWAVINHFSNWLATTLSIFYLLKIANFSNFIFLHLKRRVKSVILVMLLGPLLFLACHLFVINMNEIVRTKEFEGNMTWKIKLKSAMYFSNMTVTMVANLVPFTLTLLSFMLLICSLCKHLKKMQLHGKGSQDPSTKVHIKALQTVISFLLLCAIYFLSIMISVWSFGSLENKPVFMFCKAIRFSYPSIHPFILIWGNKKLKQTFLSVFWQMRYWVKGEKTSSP

hTAS2R31 = molecular target: T2, hTAS2R31 (Homo sapiens, UniProt P59538); assay: FLIPR calcium imaging in HEK293 cells stably expressing hTAS2R31 and G16gust44
T2 sequence (P59538 1-309): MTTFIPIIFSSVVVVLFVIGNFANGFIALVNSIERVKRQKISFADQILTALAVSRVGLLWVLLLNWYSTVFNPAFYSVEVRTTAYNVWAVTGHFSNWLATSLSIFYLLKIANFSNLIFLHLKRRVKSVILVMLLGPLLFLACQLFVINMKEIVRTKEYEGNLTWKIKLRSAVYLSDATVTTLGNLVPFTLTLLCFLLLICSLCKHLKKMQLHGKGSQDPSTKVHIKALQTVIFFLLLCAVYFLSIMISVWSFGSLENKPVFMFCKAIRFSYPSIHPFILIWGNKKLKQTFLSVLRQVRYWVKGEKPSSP

hTAS2R7 = molecular target: T3, hTAS2R7 (Homo sapiens, UniProt Q9NYW3); assay: calcium imaging in transfected cells, […] GIV3727 against […] cromolyn; conditions: read-out: % activation in presence of GIV3727
T3 sequence (Q9NYW3 1-318): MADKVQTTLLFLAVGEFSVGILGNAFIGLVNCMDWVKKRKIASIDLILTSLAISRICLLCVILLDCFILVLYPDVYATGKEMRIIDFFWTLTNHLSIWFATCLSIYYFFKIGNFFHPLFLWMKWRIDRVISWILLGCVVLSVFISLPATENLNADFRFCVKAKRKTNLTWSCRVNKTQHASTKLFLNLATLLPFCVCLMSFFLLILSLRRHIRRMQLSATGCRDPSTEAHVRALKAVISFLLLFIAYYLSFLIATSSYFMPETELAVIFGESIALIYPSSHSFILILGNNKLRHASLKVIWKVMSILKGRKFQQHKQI

hTAS2R4 = molecular target: T4, hTAS2R4 (Homo sapiens, UniProt Q9NYW5); assay: calcium imaging in transfected cells, […] GIV3727 against […] colchicine; conditions: read-out: % activation in presence of GIV3727
T4 sequence (Q9NYW5 1-299): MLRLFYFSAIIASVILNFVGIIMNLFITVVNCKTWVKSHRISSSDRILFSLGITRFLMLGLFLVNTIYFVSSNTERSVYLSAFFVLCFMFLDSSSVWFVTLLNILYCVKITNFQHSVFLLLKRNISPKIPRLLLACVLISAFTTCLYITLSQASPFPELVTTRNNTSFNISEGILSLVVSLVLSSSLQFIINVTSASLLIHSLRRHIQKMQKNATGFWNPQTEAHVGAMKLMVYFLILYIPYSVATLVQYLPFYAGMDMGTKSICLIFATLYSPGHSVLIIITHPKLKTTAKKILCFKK

hTAS2R43 [2] = molecular target: T1, hTAS2R43; assay: calcium imaging in transfected cells, agonist at […]

Sequence of hTAS2R40 (P59535 whole entry): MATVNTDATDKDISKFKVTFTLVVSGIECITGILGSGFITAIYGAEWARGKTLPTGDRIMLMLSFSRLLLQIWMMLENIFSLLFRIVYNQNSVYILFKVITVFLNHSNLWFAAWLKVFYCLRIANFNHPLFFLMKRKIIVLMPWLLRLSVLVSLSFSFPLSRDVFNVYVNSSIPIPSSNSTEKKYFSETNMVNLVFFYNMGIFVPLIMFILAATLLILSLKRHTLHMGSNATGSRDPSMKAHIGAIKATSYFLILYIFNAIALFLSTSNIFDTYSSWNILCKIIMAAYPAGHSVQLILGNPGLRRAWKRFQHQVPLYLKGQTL

Structure (SMILES) | activity at 25 µM (hTAS2R40) [%] | activity at 25 µM (hTAS2R43 [1]) [%] | IC50 (hTAS2R31) [µM] | activity at 25 µM (hTAS2R7) [%] | activity at 25 µM (hTAS2R4) [%] | calcium imaging in transfected cells, agonist at 0.3 μM (hTAS2R43 [2])
CC1CCC(CCCC(=O)O)C1(C)C (stereo not drawn) [GIV3727, 4-(2,2,3-trimethylcyclopentyl)butanoic acid] | 3.2 ± 6.5 | 2.5 ± 4.9 | 6.4 ± 2.4 | 47.8 ± 17 | 45.8 ± 17.4 | –
COc1cccc2c1cc([N+](=O)[O-])c1c(C(=O)O)cc3c(c12)OCO3 [aristolochic acid] | – | – | – | – | – | confers sensitivity to aristolochic acid, which activates hTAS2R43 but is inactive in the native hTAS2R46 (Figure S4)
